Test results taken from publication PMC9668928, “Zandelisib (ME-401) in Japanese patients with relapsed or refractory indolent non-Hodgkin’s lymphoma: an open-label, multicenter, dose-escalation phase 1 study” (International Journal of Hematology, 2022).

Tested on: Japanese patients with R/R iNHL
Experiment: Phase 1 dose-escalation study: safety and tolerability (TEAEs, DLTs)
Format: in vivo
From the text: Japanese patients aged ≥ 20 years with R/R iNHL histologically confirmed as FL, nodal MZL, extra-nodal MZL of mucosa-associated lymphoid tissue, small lymphocytic lymphoma, lymphoplasmacytic lymphoma, Waldenström’s macroglobulinemia, or equivalent, according to World Health Organization classification, were eligible for this study. Other key eligibility criteria included being PI3K inhibitor therapy-naïve and an Eastern Cooperative Oncology Group performance status of 0 or 1. Further details of inclusion and exclusion criteria are provided in Supplementary Table 1.
This was a multicenter, open-label, dose-escalation, phase 1 study in Japan. All patients received oral zandelisib once daily at the same time each day, at least 1 h before or 2 h after a meal (CS: continuous schedule). Each treatment cycle was 28 days. Definitions of the DLTs described in this study can be found in Supplementary Table 2. The observation period for DLTs was from day 1 of Cycle 1 to day 1 of Cycle 2. Zandelisib was administered until disease progression or unacceptable toxicity. In the event of an AE, patients could be switched to IDT. In the case of disease progression while receiving IDT, patients could be switched back to CS per the investigator’s discretion.
A starting dose of 45 mg was set for investigating patient safety. This study adopted a standard 3 + 3 design. […] If DLTs occurred in 2 or more patients, the study was planned to be suspended pending a safety evaluation. If a DLT occurred in 1 patient, 3 further patients were added to cohort 1. If DLTs occurred in 0/3 or 1/6 patients in cohort 1, dosing in cohort 2 commenced (n = 6; 60 mg/day). If the incidence of DLTs in cohort 2 was ≤ 1/6, the maximum tolerated dose was not determined, and the dose in cohort 2 was to be selected as the recommended Japanese phase 2 dose.
The primary endpoint was the safety [number of patients with treatment-emergent adverse events (TEAEs), based on Common Terminology Criteria for Adverse Events version 5.0] and tolerability (including laboratory values, vital signs, and electrocardiogram performance) of zandelisib in Japanese patients. Hepatobiliary disorder, aspartate/alanine (AST/ALT) increased, diarrhea/colitis, organizing pneumonia, stomatitis, or rash were defined as irAEs in this manuscript. Secondary endpoints included PK (plasma concentrations and PK parameters) and the efficacy of zandelisib. […] The PK parameters for Cycle 1 day 1 and Cycle 2 day 1 were calculated for each patient by non-compartmental analysis. PK parameters included maximum plasma drug concentration (Cmax), area under the plasma concentration–time curve (AUC) from time zero to the last measurable point (AUC0–t), the AUC from time zero to infinity (AUC0-inf), and terminal half-life (t1/2).

CN1CCC(c2ccccc2CC(C)(C)Nc2nc(N3CCOCC3)nc(-n3c(C(F)F)nc4ccccc43)n2)CC1 [zandelisib]
TEAE Cytomegalovirus viremia, Grade ≥ 3 (Total, N = 9): 0 n (%) | TEAE Decreased appetite, All grades (Total, N = 9): 1 (11.1) n (%) | TEAE Decreased appetite, Grade ≥ 3 (Total, N = 9): 1 (11.1) n (%) | TEAE Diarrhea, All grades (Total, N = 9): 4 (44.4) n (%) | TEAE Diarrhea, Grade ≥ 3 (Total, N = 9): 3 (33.3) n (%) | TEAE Drug hypersensitivity, All grades (Total, N = 9): 1 (11.1) n (%) | TEAE Drug hypersensitivity, Grade ≥ 3 (Total, N = 9): 0 n (%) | TEAE Drug-induced liver injury, All grades (Total, N = 9): 1 (11.1) n (%) | TEAE Drug-induced liver injury, Grade ≥ 3 (Total, N = 9): 1 (11.1) n (%) | TEAE Dry eye, All grades (Total, N = 9): 1 (11.1) n (%) | TEAE Dry eye, Grade ≥ 3 (Total, N = 9): 0 n (%) | TEAE Dry skin, All grades (Total, N = 9): 2 (22.2) n (%) | TEAE Dry skin, Grade ≥ 3 (Total, N = 9): 0 n (%) | TEAE Dysgeusia, All grades (Total, N = 9): 1 (11.1) n (%) | TEAE Dysgeusia, Grade ≥ 3 (Total, N = 9): 0 n (%) | TEAE Dyspnea, All grades (Total, N = 9): 1 (11.1) n (%) | TEAE Dyspnea, Grade ≥ 3 (Total, N = 9): 1 (11.1) n (%) | TEAE Ear and labyrinth disorders (SOC), All grades (Total, N = 9): 1 (11.1) n (%) | TEAE Ear and labyrinth disorders (SOC), Grade ≥ 3 (Total, N = 9): 0 n (%) | TEAE Eczema, All grades (Total, N = 9): 1 (11.1) n (%) | TEAE Eczema, Grade ≥ 3 (Total, N = 9): 0 n (%) | TEAE Eosinophil count increased, All grades (Total, N = 9): 1 (11.1) n (%) | TEAE Eosinophil count increased, Grade ≥ 3 (Total, N = 9): 0 n (%) | TEAE Erythema multiforme, All grades (Total, N = 9): 1 (11.1) n (%) | TEAE Erythema multiforme, Grade ≥ 3 (Total, N = 9): 0 n (%) | TEAE Eye disorders (SOC), All grades (Total, N = 9): 2 (22.2) n (%) | TEAE Eye disorders (SOC), Grade ≥ 3 (Total, N = 9): 0 n (%) | TEAE Flank pain, All grades (Total, N = 9): 1 (11.1) n (%) | TEAE Flank pain, Grade ≥ 3 (Total, N = 9): 0 n (%) | TEAE GGT increased, All grades (Total, N = 9): 1 (11.1) n (%) | TEAE GGT increased, Grade ≥ 3 (Total, N = 9): 1 (11.1) n (%) | TEAE Gastrointestinal disorders (SOC), All grades (Total, N = 9): 6 (66.7) n (%) | TEAE Gastrointestinal disorders (SOC), Grade ≥ 3 (Total, N = 9): 4 (44.4) n (%) | TEAE General disorders and administration site conditions (SOC), All grades (Total, N = 9): 1 (11.1) n (%) | TEAE General disorders and administration site conditions (SOC), Grade ≥ 3 (Total, N = 9): 0 n (%) | TEAE Hepatic function abnormal, All grades (Total, N = 9): 2 (22.2) n (%) | TEAE Hepatic function abnormal, Grade ≥ 3 (Total, N = 9): 1 (11.1) n (%) | TEAE Hepatobiliary disorders (SOC), All grades (Total, N = 9): 3 (33.3) n (%) | TEAE Hepatobiliary disorders (SOC), Grade ≥ 3 (Total, N = 9): 2 (22.2) n (%) | TEAE Herpes simplex, All grades (Total, N = 9): 1 (11.1) n (%) | TEAE Herpes simplex, Grade ≥ 3 (Total, N = 9): 0 n (%) | TEAE Herpes zoster, All grades (Total, N = 9): 1 (11.1) n (%) | TEAE Herpes zoster, Grade ≥ 3 (Total, N = 9): 0 n (%) | TEAE Hypoesthesia, All grades (Total, N = 9): 1 (11.1) n (%) | TEAE Hypoesthesia, Grade ≥ 3 (Total, N = 9): 0 n (%) | TEAE Hypogammaglobulinemia, All grades (Total, N = 9): 2 (22.2) n (%) | TEAE Hypogammaglobulinemia, Grade ≥ 3 (Total, N = 9): 0 n (%) | TEAE Immune system disorders (SOC), All grades (Total, N = 9): 3 (33.3) n (%) | TEAE Immune system disorders (SOC), Grade ≥ 3 (Total, N = 9): 0 n (%) | TEAE Infections and infestations (SOC), All grades (Total, N = 9): 6 (66.7) n (%) | TEAE Infections and infestations (SOC), Grade ≥ 3 (Total, N = 9): 0 n (%) | TEAE Infusion site extravasation, All grades (Total, N = 9): 1 (11.1) n (%) | TEAE Infusion site extravasation, Grade ≥ 3 (Total, N = 9): 0 n (%) | TEAE Insomnia, All grades (Total, N = 9): 1 (11.1) n (%) | TEAE Insomnia, Grade ≥ 3 (Total, N = 9): 0 n (%) | TEAE Investigations (SOC), All grades (Total, N = 9): 9 (100.0) n (%) | TEAE Investigations (SOC), Grade ≥ 3 (Total, N = 9): 6 (66.7) n (%) | TEAE Joint effusion, All grades (Total, N = 9): 1 (11.1) n (%) | TEAE Joint effusion, Grade ≥ 3 (Total, N = 9): 0 n (%) | TEAE Lymphocyte count decreased, All grades (Total, N = 9): 3 (33.3) n (%) | TEAE Lymphocyte count decreased, Grade ≥ 3 (Total, N = 9): 1 (11.1) n (%) | TEAE Metabolism and nutrition disorders (SOC), All grades (Total, N = 9): 1 (11.1) n (%) | TEAE Metabolism and nutrition disorders (SOC), Grade ≥ 3 (Total, N = 9): 1 (11.1) n (%) | TEAE Muscle spasms, All grades (Total, N = 9): 1 (11.1) n (%) | TEAE Muscle spasms, Grade ≥ 3 (Total, N = 9): 0 n (%) | TEAE Musculoskeletal and connective tissue disorders (SOC), All grades (Total, N = 9): 4 (44.4) n (%) | TEAE Musculoskeletal and connective tissue disorders (SOC), Grade ≥ 3 (Total, N = 9): 0 n (%) | TEAE Nasopharyngitis, All grades (Total, N = 9): 5 (55.6) n (%) | TEAE Nasopharyngitis, Grade ≥ 3 (Total, N = 9): 0 n (%) | TEAE Nausea, All grades (Total, N = 9): 3 (33.3) n (%) | TEAE Nausea, Grade ≥ 3 (Total, N = 9): 0 n (%) | TEAE Nervous system disorders (SOC), All grades (Total, N = 9): 1 (11.1) n (%) | TEAE Nervous system disorders (SOC), Grade ≥ 3 (Total, N = 9): 0 n (%) | TEAE Neutrophil count decreased, All grades (Total, N = 9): 8 (88.9) n (%) | TEAE Neutrophil count decreased, Grade ≥ 3 (Total, N = 9): 5 (55.6) n (%) | TEAE Oral herpes, All grades (Total, N = 9): 1 (11.1) n (%) | TEAE Oral herpes, Grade ≥ 3 (Total, N = 9): 0 n (%) | TEAE Organizing pneumonia, All grades (Total, N = 9): 1 (11.1) n (%) | TEAE Organizing pneumonia, Grade ≥ 3 (Total, N = 9): 1 (11.1) n (%) | TEAE Oropharyngeal pain, All grades (Total, N = 9): 2 (22.2) n (%) | TEAE Oropharyngeal pain, Grade ≥ 3 (Total, N = 9): 0 n (%) | TEAE Pancreatitis, All grades (Total, N = 9): 1 (11.1) n (%) | TEAE Pancreatitis, Grade ≥ 3 (Total, N = 9): 1 (11.1) n (%) | TEAE Pharyngeal paresthesia, All grades (Total, N = 9): 1 (11.1) n (%) | TEAE Pharyngeal paresthesia, Grade ≥ 3 (Total, N = 9): 0 n (%) | TEAE Pruritus, All grades (Total, N = 9): 1 (11.1) n (%) | TEAE Pruritus, Grade ≥ 3 (Total, N = 9): 0 n (%) | TEAE Psychiatric disorders (SOC), All grades (Total, N = 9): 1 (11.1) n (%) | TEAE Psychiatric disorders (SOC), Grade ≥ 3 (Total, N = 9): 0 n (%) | TEAE Rash maculopapular, All grades (Total, N = 9): 5 (55.6) n (%) | TEAE Rash maculopapular, Grade ≥ 3 (Total, N = 9): 1 (11.1) n (%) | TEAE Rash, All grades (Total, N = 9): 4 (44.4) n (%) | TEAE Rash, Grade ≥ 3 (Total, N = 9): 0 n (%) | TEAE Renal and urinary disorders (SOC), All grades (Total, N = 9): 1 (11.1) n (%) | TEAE Renal and urinary disorders (SOC), Grade ≥ 3 (Total, N = 9): 0 n (%) | TEAE Renal impairment, All grades (Total, N = 9): 1 (11.1) n (%) | TEAE Renal impairment, Grade ≥ 3 (Total, N = 9): 0 n (%) | TEAE Respiratory, thoracic, and mediastinal disorders (SOC), All grades (Total, N = 9): 4 (44.4) n (%) | TEAE Respiratory, thoracic, and mediastinal disorders (SOC), Grade ≥ 3 (Total, N = 9): 1 (11.1) n (%) | TEAE Skin and subcutaneous tissue disorders (SOC), All grades (Total, N = 9): 9 (100.0) n (%) | TEAE Skin and subcutaneous tissue disorders (SOC), Grade ≥ 3 (Total, N = 9): 1 (11.1) n (%) | TEAE Stomatitis, All grades (Total, N = 9): 2 (22.2) n (%) | TEAE Stomatitis, Grade ≥ 3 (Total, N = 9): 1 (11.1) n (%) | TEAE Subcutaneous abscess, All grades (Total, N = 9): 1 (11.1) n (%) | TEAE Subcutaneous abscess, Grade ≥ 3 (Total, N = 9): 0 n (%) | TEAE Tinnitus, All grades (Total, N = 9): 1 (11.1) n (%) | TEAE Tinnitus, Grade ≥ 3 (Total, N = 9): 0 n (%) | TEAE Urticaria, All grades (Total, N = 9): 1 (11.1) n (%) | TEAE Urticaria, Grade ≥ 3 (Total, N = 9): 0 n (%) | TEAE Vomiting, All grades (Total, N = 9): 2 (22.2) n (%) | TEAE Vomiting, Grade ≥ 3 (Total, N = 9): 0 n (%) | TEAE WBC count decreased, All grades (Total, N = 9): 4 (44.4) n (%) | TEAE WBC count decreased, Grade ≥ 3 (Total, N = 9): 0 n (%) | discontinued treatment due to TEAEs (cohort 1, 45 mg/day): 2 patients | discontinued treatment due to TEAEs (cohort 2, 60 mg/day): 2 patients | discontinuation due to irAEs (during IDT): no discontinuation due to irAEs occurred during IDT | recurrence of Grade ≥ 3 irAEs and any grade irAEs leading to drug interruption (during IDT): 4/8
